Laboratory results from BindingDB's records for doi:10.7270/Q2JS9NV0 (Nmmlsc, 2009).

Biological target: Ras-related C3 botulinum toxin substrate 1 (Mus musculus, UniProt P63001)
Experiment: analog inhibition of wildtype Rac1 nucleotide binding – biochemical, oxadiazole analogs, multiplex bead flow cytometry, SAR follow-up (AID 2027)

Compound: COc1ccc(-c2noc(CCC(=O)N3CCN(c4ccccc4F)CC3)n2)cc1 [1-[4-(2-fluorophenyl)piperazin-1-yl]-3-[3-(4-methoxyphenyl)-1,2,4-oxadiazol-5-yl]propan-1-one]
- Ki: 100 nM
